Patent EP0070803A2, “Antibiotically active aminotriazolylcephalosporin derivatives and their preparation” (CIBA-GEIGY AG, priority 1981, dated 1983)
Converted amounts (≈) assume the structure as drawn. Where a name gives a salt, the structure may show the parent alone. Read-outs that look alike come from different tables or passages of the source.

Tests used:
[1] = system: Staphylococcus aureus 2999i^+p^+; assay: Antibiotic activity in vitro, agar dilution method (MIC); format: cell-based; conditions: DST agar
[2] = system: Streptococcus pyogenes Aronson; assay: as above; format: cell-based; conditions: DST agar
Escherichia coli 205 [3] = assay: as above; format: cell-based; conditions: DST agar
[4] = system: Klebsiella pneumoniae 327; assay: as above; format: cell-based; conditions: DST agar
Proteus mirabilis 774 = assay: as above; format: cell-based; conditions: DST agar
Proteus rettgeri 856 = assay: as above; format: cell-based; conditions: Providencia rettgeri, DST agar
[5] = system: Clostridium perfringens 194; assay: microbe, parasite or virus in culture; format: cell-based
[6] = system: Neisseria meningitidis 1316; assay: Antibiotic activity in vitro, agar dilution method (MIC); format: cell-based; conditions: DST agar
[7] = system: Haemophilus influenzae NCTC 4560; assay: as above; format: cell-based; conditions: DST agar
Escherichia coli 205 [8] = assay: Chemotherapeutic activity in vivo against systemic infection in mice (ED50); conditions: s.c., systemic infection in female SPF MF2 mice
Text: (§1) B. Die chemotherapeutische Wirksamkeit in vivo gegen systemische Infektionen in weiblichen SPF, MF2 Mäusen wurde nach der Methode von Zak., 0., et al., 1979, Drugs Exptl. Clin. Res. 5, 45-59, ermittelt. Die gefundenen ED50-Werte in Milligramm Substanz pro Kilogramm Maus (mg/kg) für eine Anzahl von Mikroorganismen werden für die subcutan (s.c.) applizierten Testverbindungen in der Tabelle 2 angegeben.

Proteus morganii 2359 = assay: as above; conditions: Morganella morganii, sc, systemic infection in female SPF MF2 mice
Text: as §1

Serratia marcescens 344 = assay: Antibiotic activity in vitro, agar dilution method (MIC); format: cell-based; conditions: DST agar
[9] = system: Bacteroides fragilis LO 1; assay: as above; format: cell-based; conditions: LO1, DST agar
[10] = system: Staphylococcus aureus 10B; assay: Chemotherapeutic activity in vivo against systemic infection in mice (ED50); conditions: systemic infection in female SPF MF2 mice
Text: as §1

[11] = system: Pseudomonas aeruginosa ATCC 12055; assay: Antibiotic activity in vitro, agar dilution method (MIC); format: cell-based; conditions: ATCC12055, DST agar
[12] = Staphylococcus aureus, read-out: MIC
[13] = Escherichia coli, 205, agar dilution, read-out: MIC
[14] = Klebsiella pneumoniae, 327, agar dilution, read-out: MIC
[15] = Proteus mirabilis, 774, agar dilution, read-out: MIC
[16] = Neisseria meningitidis, 1316, agar dilution, read-out: MIC
[17] = Haemophilus influenzae, NCTC4560, agar dilution, read-out: MIC
[18] = Escherichia coli, 205, sc, read-out: ED50
[19] = Serratia marcescens, 344, agar dilution, read-out: MIC
[20] = Staphylococcus aureus, 10B, sc, read-out: ED50

Row | SMILES | MIC [1, 12] | MIC [2] | MIC (Escherichia coli 205 [3]; [13]) | MIC [4, 14] | MIC (Proteus mirabilis 774; [15]) | MIC (Proteus rettgeri 856) | MIC [5] | MIC [6, 16] | MIC [7, 17] | ED50 (Escherichia coli 205 [8]; [18]) | ED50 (Proteus morganii 2359) | MIC (Serratia marcescens 344; [19]) | MIC [9] | MIC [11] | ED50 [10, 20] | also measured
1 | CC(=O)OCC1=C(C(=O)O)N2C(=O)[C@@H](NC(=O)Cc3nc(N)n(C)n3)[C@H]2SC1 [Testverbindung 1, 7β-[2-(5-Amino-1-methyl-1H-1,2,4-triazol-3-yl)-acetamino]-3-acetoxymethyl-3-cephem-4-carbonsäure] | 8 µg/mL (≈ 19.5 µM) | 1 µg/mL (≈ 2.44 µM) | 32 µg/mL (≈ 78 µM) | 16 µg/mL (≈ 39 µM) | 128 µg/mL (≈ 312 µM) | 32 µg/mL (≈ 78 µM) | 16 µg/mL (≈ 39 µM) | 2 µg/mL (≈ 4.87 µM) | 4 µg/mL (≈ 9.75 µM) | > 30 mg/kg | > 30 mg/kg | – | – | – | – | –
2 | CO/N=C(\C(=O)N[C@@H]1C(=O)N2C(C(=O)[O-])=C(C[n+]3ccc(C(N)=O)cc3)CS[C@H]12)c1nc(N)n(C)n1 [Testverbindung 4, 7β-[2-(5-Amino-1-methyl-1H-1,2,4-triazol-3-yl)-2-Z-methoxyimino-acetamino]-3-(4-carbamoylpyridiniomethyl)-3-cephem-4-carboxylat] | 32 µg/mL (≈ 62.1 µM) | 32 µg/mL (≈ 62.1 µM) | 0.1 µg/mL (≈ 0.194 µM) | 0.1 µg/mL (≈ 0.194 µM) | 0.1 µg/mL (≈ 0.194 µM) | 0.02 µg/mL (≈ 0.0388 µM) | 8 µg/mL (≈ 15.5 µM) | 0.5 µg/mL (≈ 0.97 µM) | 2 µg/mL (≈ 3.88 µM) | 2.5 mg/kg | – | 0.5 µg/mL (≈ 0.97 µM) | 4 µg/mL (≈ 7.76 µM) | – | – | –
3 | CO/N=C(\C(=O)N[C@@H]1C(=O)N2C(C(=O)O)=C(COC(C)=O)CS[C@H]12)c1nc(N)n(C)n1 [Testverbindung 2, 7ß-[2-(5-Amino-l-methyl-lH-l,2,4-triazol-3-yl)-2-Z-methoxy-imino-acetamino]-3-acetoxymethyl-3-cephem-4-carbonsäure] | – | – | – | – | – | – | – | – | – | – | > 30 mg/kg | – | – | – | – | MIC ([1]; listed as 3): 4 µg/mL (≈ 8.82 µM); MIC (Escherichia coli 205 [3]; agar dilution, listed as 3): 0,05 µg/ml; MIC ([4]; agar dilution, listed as 3): 0,05 µg/ml; MIC (Serratia marcescens 344; agar dilution, listed as 3): 0,1 µg/ml; MIC (Proteus mirabilis 774; agar dilution, listed as 3): 0,1 µg/ml; MIC ([6]; agar dilution, listed as 3): 0,1 µg/ml; MIC ([7]; agar dilution, listed as 3): 0,5 µg/ml; ED50 (Escherichia coli 205 [8]; listed as 3): 0,4 mg/kg; ED50 ([10]; s.c., listed as 3): >30 mg/kg
4 | CO/N=C(\C(=O)N[C@@H]1C(=O)N2C(C(=O)O)=C(CSc3nnnn3C)CS[C@H]12)c1nc(N)n(C)n1 [Testverbindung 3, 7β-[2-(5-Amino-1-methyl-1H-1,2,4-triazol-3-yl)-2-Z-methoxyimino-acetamino]-3-(1-methyltetrazol-5-yl-thiomethyl)-3-cephem-4-carbonsäure] | 8 µg/mL (≈ 15.7 µM) | 1 µg/mL (≈ 1.96 µM) | 0.2 µg/mL (≈ 0.393 µM) | 0.2 µg/mL (≈ 0.393 µM) | 0.2 µg/mL (≈ 0.393 µM) | 0.1 µg/mL (≈ 0.196 µM) | 0.2 µg/mL (≈ 0.393 µM) | 0.5 µg/mL (≈ 0.981 µM) | 8 µg/mL (≈ 15.7 µM) | 1.7 mg/kg | 50 mg/kg | 0.5 µg/mL (≈ 0.981 µM) | 16 µg/mL (≈ 31.4 µM) | 1 µg/mL (≈ 1.96 µM) | 28 mg/kg | –
5 | CO/N=C(\C(=O)N[C@@H]1C(=O)N2C(C(=O)[O-])=C(C[n+]3ccc(C(N)=O)cc3)CS[C@H]12)c1nc(N=CN(C)C)n(C)n1 [Testverbindung 5] | 8 µg/mL (≈ 14 µM) | 0.5 µg/mL (≈ 0.876 µM) | 32 µg/mL (≈ 56.1 µM) | 32 µg/mL (≈ 56.1 µM) | 32 µg/mL (≈ 56.1 µM) | 8 µg/mL (≈ 14 µM) | 2 µg/mL (≈ 3.51 µM) | 8 µg/mL (≈ 14 µM) | 128 µg/mL (≈ 224 µM) | > 30 mg/kg | 70 mg/kg | 128 µg/mL (≈ 224 µM) | 32 µg/mL (≈ 56.1 µM) | 128 µg/mL (≈ 224 µM) | 55 mg/kg | –
6 | CO/N=C(\C(=O)N[C@@H]1C(=O)N2C(C(=O)O)=C(COC(C)=O)CS[C@H]12)c1nc(N)n(C)n1 [Beispiel 2, 7β-[2-(5-Amino-1-methyl-1H-1,2,4-triazol-3-yl)-2-Z-methoxyimino-acetamino]-3-acetoxymethyl-3-cephem-4-carbonsäure-hydrochlorid] | 8 µg/mL | 0.5 µg/mL | 0.1 µg/mL | 0.1 µg/mL | 0.05 µg/mL | 0.01 µg/mL | 0.5 µg/mL | – | 1 µg/mL | – | – | – | 8 µg/mL | 128 µg/mL | – | MIC (Serratia marcescens 344; agar dilution): 1 µg/mL; MIC ([6]; agar dilution): 0,02 µg/ml; ED50 (Escherichia coli 205 [8]): 1 mg/kg; ED50 ([10]; s.c.): 10 mg/kg
